The test system of assay [1] is H1299. Kind of assay: 2D cell proliferation assay (Alamar Blue), H1299. In kind it is cell-based, human. Conditions: Homo sapiens, NCI-H1299; 2D, H1299, 72 h; read-out: IC50. From the text:
Nsl-8 was subjected to 2D cell proliferation assays using four NSCLC cell lines (A549 (human adenocarcinomic alveolar basal epithelial cells with k-ras gene mutation), H1299 (human non-small cell lung carcinoma cell line with p53 mutation), H460 (human non-small cell lung carcinoma cell line with k-ras gene mutation), and HCC827 (human NSCLC cells with EGFR mutation of deletion from E746 to A750)) and the results were presented in Table 2. There were eight concentrations used for each drug for determining its IC50. […]. Actinomycin D was a chemotherapeutic drug simply used as a quality control for all the experiments.
(§1) In the 2D cell proliferation assay, cells were cultured in DMEM containing 10% FCS and Penicillin/Streptomycin. For the assays, cells were seeded in 150 μL medium on a 96-well cell culture plate and incubated at 37° C. overnight before the compounds were added. Compounds were prepared as predilution which was 16 fold concentrated to the final assay concentration. A day after cell seeding, 10 μL of prediluted compounds was added to the cells (1:16 dilution). Treatment of cells with 0.1% DMSO or 1% DMSO (for the two top concentrations of nsl-8) and 1.0E-05 M Staurosporine was served as high control (100% viability) and low control (0% viability), respectively. Measurement of the impact of compounds on cell viability was performed as follows: 5000 cells (A549 and HCC827) or 2500 cells (H1299 and H460) were seeded in the inner wells of 96-well-plates in 150 μL complete medium. Next day, compounds were added to the medium to reach the final concentration and then incubated at 37° C. in 5% or 10% CO2 depending on the medium for 72 h. Subsequently 10 μL Alamar Blue reagent was added and fluorescence at 590 nm was measured after 5 h incubation at 37° C. in 5% CO2 using a fluorometer.
(§2) Raw data were converted into percent cell viability relative to high control (solvent 0.1% DMSO or 1% DMSO for the two top concentrations of drug nsl-8) and low control (1.0E-05 M Staurosporine), which were set to 100% and 0%, respectively.
Background: The colour change of resazurin is a common sign of viable cells or microbes.

The subject of a further assay is HCC827. Kind of assay: 2D cell proliferation assay (Alamar Blue), HCC827. In kind it is cell-based, human. Conditions: Homo sapiens, HCC827, 72 h. Here is the method: There were eight concentrations used for each drug for determining its IC50. […] Actinomycin D was a chemotherapeutic drug simply used as a quality control for all the experiments.
as §1, with “Compounds were prepared as predilution which was 16 fold concentrated to the final assay concentration.” left out, “h.” for “h. Subsequently 10 μL Alamar Blue reagent was added and fluorescence at 590 nm was measured after 5 h incubation at 37° C. in 5% CO2 using a fluorometer.”
as §2

A further assay deals with A549. Kind of assay: 3D cell proliferation assay (soft agar), A549. The assay is classed as cell-based, human. The note with it: Homo sapiens, 3D soft agar. Here is the method:
(§3) Drug nsl-8 was further subjected to a 3D cell proliferation assay for assessing its potential in inhibiting the growth of NSCLC tumors. The same four NSCLC cell lines used in 2D proliferation assays were grown in soft agar and the drug was added after the agar has solidified. The drug added cells were then incubated several days until colonies have formed in the solvent control. Subsequently, Alamar Blue which was a cell viability reagent was added and the corresponding fluorescence released was measured as an indirect quantification of colony growth in soft agar.
(§4) For each cell line, some 96 well culture plates were prepared. 100 μL of the soft agar bottom layer (0.6% final concentration in complete medium) was poured and left to solidify. 50 μL of the soft agar top layer (0.4% final concentration) containing the corresponding cells and cell number were then added on top, solidified and such 96 well plates were incubated overnight at 37° C. in 10% CO2. Next day, drugs were added at indicated final concentrations into the inner wells of the plate. Subsequently, the assays were incubated in cell culture incubators for the indicated period of time. Finally, the assays were developed using Alamar Blue and upon 3-5 h of incubation at 37 ° C. fluorescence intensity was determined (excitation: 560 nm, emission: 590 nm). […]

Assay [2] has as its system H1299. Kind of assay: 3D cell proliferation assay (soft agar), H1299. In kind it is cell-based, human. The note with it: Homo sapiens, NCI-H1299, 3D soft agar. Here is the method: as §3, §4
The subject of the next assay is H460. The experiment in a line: 3D cell proliferation assay (soft agar), H460. In kind it is cell-based, human. Conditions: Homo sapiens, NCI-H460, 3D soft agar. As for the experimental part:
as §3, §4

The subject of assay [3] is four NSCLC cell lines (A549, H1299, H460, HCC827). The experiment in a line: 3D cell proliferation assay, summary over the NSCLC cell lines. In kind it is cell-based. The note with it: Homo sapiens, span over the four NSCLC cell lines. Here is the method: as §3, §4

For `COc1ccc(-c2ccc3cc(C(=O)O)ccc3c2)cc1C12CC3CC(CC(C3)C1)C2` [nsl-8, 6-[3-(1-adamantyl)-4-methoxyphenyl]-2-naphthalenecarboxylic acid], the IC50 (usually the concentration that gives 50% inhibition) in the assay with H1299 [1] is 6.5 µM; in the assay with HCC827, 11 µM; in the assay on A549 it was 0.99 µM; with H1299 [2] it was 13 µM; with H460 it was 4.9 µM; in assay [3], 0.99 to 13 µM.

The values above are taken from patent publication US20160113895A1, “Novel Use of Adapalene in Treating Esophageal Cancer and Gastrointestinal Stromal Tumor” (Biodelight Biotech Inc., priority 2013, published 2016).
